The results in this text go back to ChEMBL document CHEMBL5512613, “Design and synthesis of novel 3-amino-5-phenylpyrazole derivatives as tubulin polymerization inhibitors targeting the colchicine-binding site” (Eur J Med Chem, 2024).

The source made the active and inactive calls. The calls are words filed in the database; no cut-off is given here.

Data set [1] concerns A549. The data set can be described thus: Antiproliferative activity against human A549 cells assessed as inhibition of cell growth incubated for 48 hrs by MTT assay. To be noted: A549, 48 h. It counts as functional, cell-based.
For data set [2], the system named is HT-29. The data set can be described thus: Antiproliferative activity against human HT-29 cells assessed as inhibition of cell growth incubated for 48 hrs by MTT assay. To be noted: HT-29, 48 h. It counts as functional, cell-based. (Tetrazolium assays rely on reduction of a dye to a coloured formazan, in cell work by metabolically active cells.)
Data set [3] has as its system HeLa. The data set can be described thus: Antiproliferative activity against human HeLa cells assessed as inhibition of cell growth incubated for 48 hrs by MTT assay. It counts as functional, cell-based.
In data set [4] the test system is MDA-MB-231. The data set can be described thus: Antiproliferative activity against human MDA-MB-231 cells assessed as inhibition of cell growth incubated for 48 hrs by MTT assay. It counts as functional, cell-based. To be noted: MDA-MB-231, 48 h.
Data set [5] in a line: Cytotoxicity against human L02 cells assessed as inhibition of cell growth incubated for 48 hrs by MTT assay. It counts as toxicity, cell-based.
Data set [6] deals with MCF7. The experiment in a line: Antiproliferative activity against human MCF7 cells assessed as inhibition of cell growth incubated for 48 hrs by MTT assay. It counts as functional, cell-based. To be noted: MCF7, 48 h.
Data set [7] concerns MCF7. The data set can be described thus: Inhibition of colony formation in human MCF7 cells at 10 nM incubated for 2 weeks in 5% CO2 at 37 degC by crystal violet staining based analysis. It counts as functional, cell-based.
For data set [8], the system named is MCF7. The data set can be described thus: Antitumor activity against human MCF7 cells xenografted in BALB/c mouse assessed as inhibition of tumor growth by measuring decrease in tumor weight at 10 mg/kg, ip administered every 3 days for 21 days. It counts as functional. To be noted: MCF7, 504 h, time 21 day, read-out: TGI. A general note: In xenograft studies the graft and the host belong to different species.

In data set [9] the target is Tubulin (Homo sapiens) (UniProt P68371+Q9H4B7+P0DPH7+P68366+Q13509+Q71U36+P04350+Q3ZCM7+P07437+P68363+Q9BQE3+Q6PEY2+Q13885+Q9BVA1+Q9BUF5). The data set can be described thus: Stabilization of tubulin in human MCF7 cells assessed as stable and fascicled microtubules at 25 nM incubated for 8 hrs by DAPI staining based immunofluorescence assay. It counts as cell-based.

The term IC50 denotes the midpoint of a concentration-inhibition curve. As for `COc1cc(C(=O)n2nc(N)cc2-c2cccc(Br)c2)cc(OC)c1OC`, the half-inhibitory concentration (IC50) is 2180 nM in data set [1]; 280 nM in data set [2]; 440 nM in [3]; 540 nM in [4]; 190 nM in [6]. In addition, the IC50 at 48 h in data set [5] was above 10000 nM.

`COc1ccc(-c2cc(N)nn2C(=O)c2ccc3c(c2)OCO3)cc1OC`: the IC50 in data set [1] was determined as 2770 nM; in data set [2], 3570 nM; in data set [3] it was 4930 nM; in data set [4], 2160 nM; in data set [6] it was 1190 nM. Moreover, in [5], the IC50 at 48 h is 2090 nM.

In the case of `COc1cc(C(=O)n2nc(N)cc2-c2ccc(Cl)cc2)cc(OC)c1OC`, the IC50 in data set [1] worked out at 1360 nM; in [2], 4350 nM; in [3] it was 2550 nM; in data set [4], 2980 nM; in [6], 2770 nM. Moreover, the IC50 at 48 h in data set [5] is 2730 nM.

On to `COc1cc(C(=O)n2nc(N)cc2-c2ccc(Br)cc2)cc(OC)c1OC`, for which the IC50 in data set [1] was found to be 2430 nM; in [2], 4610 nM; in [3], 620 nM; in [4], 3020 nM; in [6] it was 2080 nM. The IC50 at 48 h in data set [5] stood at 2680 nM.

As to `COc1ccc(/C=C\c2cc(OC)c(OC)c(OC)c2)cc1O` [COMBRETASTATIN A4], the IC50 in data set [1] was determined as 280 nM; in data set [2] it was 380 nM; in data set [3], 90 nM; in data set [4], 110 nM. Also, the inhibition entry in [7] was “Active”. The IC50 at 48 h in [5] came to 3200 nM.

Consider `COc1cccc(-c2cc(N)nn2C(=O)c2ccc3c(c2)OCO3)c1`, for which the IC50 in data set [1], in [2], in data set [3], in data set [4] and in [6] was above 5000 nM throughout. Moreover, the IC50 at 48 h in [5] is above 10000 nM.

Regarding `COc1ccc(C(=O)n2nc(N)cc2-c2ccc(Br)cc2)cc1OC`, the IC50 in data set [1] is 2680 nM; in data set [2], 1080 nM; in data set [3] it was 1540 nM; in [4], 1290 nM; in data set [6] it was 180 nM. The IC50 at 48 h in data set [5] was determined as 1120 nM.

On to `COc1cccc(-c2cc(N)nn2C(=O)c2ccc(OC)c(OC)c2)c1`, for which the IC50 in [1] was 2970 nM; in data set [2] it was above 5000 nM; in data set [3] it was above 5000 nM; in data set [4], 3090 nM; in [6], 1200 nM. Besides, the IC50 at 48 h in data set [5] came to 2610 nM.

`COc1ccc(C(=O)n2nc(N)cc2-c2ccc(OC)c(OC)c2)cc1OC`: the half-inhibitory concentration (IC50) in data set [1], in [2], in data set [3], in data set [4] and in data set [6] was above 5000 nM each time. In data set [5], the IC50 at 48 h was above 10000 nM.

Regarding `COc1ccc(C(=O)n2nc(N)cc2-c2ccc(Cl)cc2)cc1OC`, the IC50 was 1780 nM in data set [1]; 3910 nM in data set [2]; 2860 nM in data set [3]; above 5000 nM in data set [4]; 1540 nM in [6]. In addition, the IC50 at 48 h in [5] stood at 4660 nM.

For the molecule `Cc1ccc(-c2cc(N)nn2C(=O)c2ccc3c(c2)OCO3)cc1`, the IC50 in data set [1] was determined as 2150 nM; in [2], 1920 nM; in data set [3], 40 nM; in [4], 170 nM; in [6] it was 120 nM. The IC50 at 48 h in data set [5] came out at 3900 nM.

For the molecule `COc1ccc(C(=O)n2nc(N)cc2-c2ccc(C)cc2)cc1OC`, the IC50 turned out to be 2530 nM in data set [1]; 1850 nM in [2]; 4850 nM in data set [3]; 3080 nM in data set [4]; 1360 nM in data set [6]. In addition, the IC50 at 48 h in data set [5] was 5580 nM.

In the case of `Nc1cc(-c2ccc(Cl)cc2)n(C(=O)c2ccc3c(c2)OCO3)n1`, the 50% inhibitory concentration (IC50) in data set [1] is 1680 nM; in data set [2], above 5000 nM; in [3], 2790 nM; in data set [4], 3870 nM; in [6], 750 nM. Moreover, in [5], the concentration for half-maximal inhibition (IC50) at 48 h was above 10000 nM.

Regarding `COc1ccc(C(=O)n2nc(N)cc2-c2ccc(F)cc2)cc1OC`, the half-maximal inhibitory concentration (IC50) in [1], in [2], in data set [3], in [4] and in data set [6] was above 5000 nM throughout. The IC50 at 48 h in [5] was above 10000 nM.

Regarding `Nc1cc(-c2ccc(F)cc2)n(C(=O)c2ccc3c(c2)OCO3)n1`, the IC50 in data set [1] is 3840 nM; in data set [2], above 5000 nM; in data set [3] it was above 5000 nM; in data set [4], 1970 nM; in [6], 4440 nM. Further, the IC50 at 48 h in data set [5] was determined as 6060 nM.

Consider `COc1ccc(-c2cc(N)nn2C(=O)c2cc(OC)c(OC)c(OC)c2)cc1`, for which the IC50 in data set [1] was found to be 350 nM; in data set [2], 400 nM; in data set [3], 650 nM; in [4] it was 840 nM; in data set [6] it was 310 nM. Besides, in [5], the IC50 at 48 h is above 10000 nM.

As to `CC(=O)O[C@H]1C(=O)[C@@]2(C)[C@H]([C@H](OC(=O)c3ccccc3)[C@]3(O)C[C@H](OC(=O)[C@H](O)[C@@H](NC(=O)c4ccccc4)c4ccccc4)C(C)=C1C3(C)C)[C@]1(OC(C)=O)CO[C@@H]1C[C@@H]2O` [PACLITAXEL], the inhibition entry in data set [7] is “Active”. Also, the IC50 was 70 nM in data set [2], 20 nM in data set [3], 190 nM in [4] and 220 nM in data set [6]. Also, in data set [8], the inhibition in vivo at 10 mg/kg turned out to be 73.5%. The result in data set [9] was Active. In addition, in data set [5], the IC50 at 48 h worked out at 1730 nM.

Regarding `COc1ccc(C(=O)n2nc(N)cc2-c2cccc(Cl)c2)cc1OC`, the IC50 in [1], in data set [2], in data set [3], in data set [4] and in [6] was above 5000 nM each time. The IC50 at 48 h in data set [5] was above 10000 nM.

On to `COc1cc(C(=O)n2nc(N)cc2-c2cccc(Cl)c2)cc(OC)c1OC`, for which the half-inhibitory concentration (IC50) came out at 5180 nM in data set [1], 850 nM in data set [2], 140 nM in data set [3] and 110 nM in [6]. Also, the IC50 at 48 h in [5] is 1640 nM.

For the molecule `COc1cc(C(=O)n2nc(N)cc2-c2cccc(F)c2)cc(OC)c1OC`, the IC50 was 2890 nM in data set [1]; 190 nM in [2]; 320 nM in data set [3]; 330 nM in data set [4]; 120 nM in data set [6]. The IC50 at 48 h in data set [5] was 4170 nM.

For the molecule `COc1cc(C(=O)n2nc(N)cc2-c2ccc(F)cc2)cc(OC)c1OC`, the IC50 in data set [1] worked out at 2530 nM; in data set [2], 60 nM; in data set [3] it was 130 nM; in [4] it was 390 nM; in data set [6], 150 nM. For the same molecule, in [5], the IC50 at 48 h amounted to 6240 nM.

In the case of `COc1cc(C(=O)n2nc(N)cc2-c2cccc(C)c2)cc(OC)c1OC`, the IC50 in data set [1] amounted to 770 nM; in data set [2], 1060 nM; in data set [3] it was 200 nM; in [4], 1270 nM; in data set [6], 80 nM. In addition, the IC50 at 48 h in data set [5] came out at 2810 nM.

Consider `COc1cccc(-c2cc(N)nn2C(=O)c2cc(OC)c(OC)c(OC)c2)c1`, for which the IC50 in [1] is 890 nM; in data set [2], 160 nM; in data set [3], 2040 nM; in data set [4] it was 1290 nM; in data set [6], 400 nM. The IC50 at 48 h in [5] was found to be 5680 nM.

With `COc1ccc(-c2cc(N)nn2C(=O)c2cc(OC)c(OC)c(OC)c2)cc1OC`, the IC50 in data set [1] turned out to be 780 nM; in data set [2], 1770 nM; in [3], 560 nM; in data set [4] it was 1570 nM; in data set [6] it was 170 nM. Moreover, the IC50 at 48 h in [5] came out at 4100 nM.
